Data from publication PMC9822073, “Synthesis, Cytotoxic Evaluation, and Structure-Activity Relationship of Substituted Quinazolinones as Cyclin-Dependent Kinase 9 Inhibitors” (Molecules, 2022).
Where two headings read alike, the source gives them in different places.

Experiments:
MCF-7 cell line = assay: MTT metabolic (antiproliferative) assay; settings: read-out: Cytotoxicity IC50, MCF-7, 48 h, mean ± SD
Experimental: The antiproliferative activity of the twenty-seven compounds was evaluated by 3-(4,5-dimethylthiazol-2-yl)-2,5-diphenyltetrazolium bromide (MTT) metabolic assay against the MCF-7 cell line, according to a previous method [26].

CDK9/cyclin T = CDK9/cyclin T (Homo sapiens, UniProt P50750); assay: In vitro luminescent CDK9 kinase assay (Kinase-Glo MAX); assay type: biochemical; settings: for reduction in CDK9 inhibitory activity: compared with compound 25
Experimental: In vitro luminescent CDK9 kinase assay was performed as reported previously using Kinase- Glo® MAX as a detection reagent. Briefly, 5 μL of each inhibitor in concentrations ranging from 10 μM to 1 nM (10 μM, 1 μM, 0.1 μM, 0.01 μM, and 0.001 μM) and 10 μL of enzyme substrate were mixed in 20 μL of kinase assay buffer (obtained from BPS Bioscience, catalog #79334) at room temperature. Then 20 μL of 5 ng/μL CDK9/cyclin T was added to the mixture to initiate the reaction. After 45 min, 50 μL of Kinase-Glo® Max reagent was added, and the resulting mixture was incubated for 15 min at room temperature. The chemiluminescence was measured microplate reader, and IC50 values were calculated using Prism 8.0 (GraphPad Software, San Diego, CA, USA).

CDK9 = test system: CDK9; parameters: method as in PMID 33142413, PMID 24150998; settings: Figure 2; cited from earlier work
[1] = CDK9 IC50 as used for LE and LLE, read-out: IC50 (CDK9, Table 4)
[2] = negative log of the CDK9 IC50, read-out: pIC50 (converted)

Sequence of CDK9/cyclin T (P50750 whole entry): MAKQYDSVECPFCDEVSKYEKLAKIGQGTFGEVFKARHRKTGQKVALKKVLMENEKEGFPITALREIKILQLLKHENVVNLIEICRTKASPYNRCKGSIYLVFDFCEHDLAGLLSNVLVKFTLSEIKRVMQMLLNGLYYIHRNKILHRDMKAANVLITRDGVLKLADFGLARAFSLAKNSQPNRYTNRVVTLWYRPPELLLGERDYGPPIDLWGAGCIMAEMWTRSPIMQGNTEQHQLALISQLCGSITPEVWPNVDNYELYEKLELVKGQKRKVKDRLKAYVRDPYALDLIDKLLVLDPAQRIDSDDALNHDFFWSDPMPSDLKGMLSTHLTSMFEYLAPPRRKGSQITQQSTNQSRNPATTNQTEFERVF
Sequence of CDK9/cyclin T (O60563 whole entry partner): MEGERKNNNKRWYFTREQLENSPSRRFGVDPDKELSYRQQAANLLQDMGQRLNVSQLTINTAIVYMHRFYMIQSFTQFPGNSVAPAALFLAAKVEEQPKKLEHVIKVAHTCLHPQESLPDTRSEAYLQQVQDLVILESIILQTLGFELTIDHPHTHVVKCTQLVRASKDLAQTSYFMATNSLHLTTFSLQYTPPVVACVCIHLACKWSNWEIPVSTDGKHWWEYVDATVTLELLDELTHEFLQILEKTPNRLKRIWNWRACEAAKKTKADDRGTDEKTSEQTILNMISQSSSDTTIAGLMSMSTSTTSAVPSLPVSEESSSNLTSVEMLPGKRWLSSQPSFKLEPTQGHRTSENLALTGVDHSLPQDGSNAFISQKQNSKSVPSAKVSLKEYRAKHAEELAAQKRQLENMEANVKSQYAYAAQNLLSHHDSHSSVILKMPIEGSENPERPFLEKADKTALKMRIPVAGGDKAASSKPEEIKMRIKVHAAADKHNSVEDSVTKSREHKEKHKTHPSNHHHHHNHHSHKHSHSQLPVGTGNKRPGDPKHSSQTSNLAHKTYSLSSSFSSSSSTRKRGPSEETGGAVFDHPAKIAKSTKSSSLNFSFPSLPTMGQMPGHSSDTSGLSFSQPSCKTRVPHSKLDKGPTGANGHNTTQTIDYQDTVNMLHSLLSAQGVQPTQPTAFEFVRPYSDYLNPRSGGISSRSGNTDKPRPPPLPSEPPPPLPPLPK

Row | SMILES | IC50 (MCF-7 cell line) [µM] | IC50 (CDK9/cyclin T; [1]) [µM] | IC50 (CDK9/cyclin T; mean ± SD, read-out: CDK9 IC50) [µM] | other results
1 | CCOc1ccc(NC(=O)CSc2nc3ccccc3c(=O)n2CCc2ccc(S(N)(=O)=O)cc2)cc1 [Compound 7] | 1.57 ± 0.04 | 0.115 | 0.115 ± 0.002 | increase of CDK9 inhibitory activity (CDK9/cyclin T; compared to the hit compound 1): around 6 fold
2 | CC(Sc1nc2ccccc2c(=O)n1CCc1ccc(S(N)(=O)=O)cc1)C(=O)Nc1ccccc1 (centres unmarked) [Compound 15] | 0.67 ± 0.18 | 0.444 | 0.444 ± 0.007 | –
3 | Cc1ccc2nc(-c3cccc(Br)c3)n(N)c(=O)c2c1 [Compound 27, 3-Amino-2-(3-bromophenyl)-6-methylquinazolin-4(3H)-one] | 28.7 ± 0.92 | 0.835 | 0.835 ± 0.006 | reduction in CDK9 inhibitory activity (CDK9/cyclin T): approximately 6 fold
4 | Cc1ccc2nc(-c3cccc(Br)c3)n(O)c(=O)c2c1 [Compound 28, 2-(3-Bromophenyl)-3-hydroxy-6-methylquinazolin-4(3H)-one] | 6.27 ± 0.2 | – | 0.21 ± 0.002 | IC50 (CDK9/cyclin T; [2]): 0.209 µM
5 | NS(=O)(=O)c1ccc(CCn2c(SCc3ccccc3)nc3ccccc3c2=O)cc1 [VI] | – | – | – | IC50 (CDK9): 67 µM
6 | CN1CC[C@H](c2c(O)cc(O)c3c(=O)cc(-c4ccccc4Cl)oc23)[C@H](O)C1 [Flavopiridol, flavopiridol, reference compound] | 0.04 ± 0.001 | – | – | –
7 | Cc1ccc2nc(-c3cccc(Br)c3)oc(=O)c2c1 [Compound 24, 2-(3-Bromophenyl)-6-methyl-4H-benzo[d][1,3]oxazin-4-one] | 10.4 ± 0.33 | 0.486 | 0.486 ± 0.004 | reduction in CDK9 inhibitory activity (CDK9/cyclin T): 3 fold
8 | NS(=O)(=O)c1ccc(CCn2c(=S)[nH]c3ccccc3c2=O)cc1 [Compound 1, 2-Mercapto-3-(4-sulfamoylphenethyl)quinazolin-4-one] | 0.65 ± 0.15 | 0.644 | 0.644 ± 0.007 | –
9 | Cc1ccc(NC(=O)CSc2nc3ccccc3c(=O)n2CCc2ccc(S(N)(=O)=O)cc2)cc1 [Compound 4] | 0.16 ± 0.02 | 0.788 | 0.788 ± 0.012 | –
10 | NS(=O)(=O)c1ccc(CCn2c(SCC(=O)Nc3ccc(Cl)cc3)nc3ccccc3c2=O)cc1 [Compound 10] | 1.04 ± 0.07 | 0.193 | 0.193 ± 0.003 | –
11 | NS(=O)(=O)c1ccc(CCn2c(SCC(=O)Nc3ccccc3)nc3ccccc3c2=O)cc1 [Compound 3] | 0.82 ± 0.08 | 0.421 | 0.421 ± 0.006 | –
12 | Cc1ccc2nc(-c3cccc(Br)c3)[nH]c(=S)c2c1 [Compound 26, 2-(3-Bromophenyl)-6-methylquinazoline-4(3H)-thione] | 5.21 ± 0.17 | 0.289 | 0.289 ± 0.002 | reduction in CDK9 inhibitory activity (CDK9/cyclin T): 2 fold
13 | COc1ccc(CNC(=O)CSc2nc3ccccc3c(=O)n2CCc2ccc(S(N)(=O)=O)cc2)cc1OC [Compound 14] | 0.59 ± 0.1 | 0.229 | 0.229 ± 0.004 | –
14 | Cc1ccc(-c2nc3ccc(Cl)cc3c(=O)[nH]2)cc1 [Compound 19] | 12.3 ± 0.39 | 0.282 | 0.282 ± 0.003 | –
15 | COc1ccc(NC(=O)CSc2nc3ccccc3c(=O)n2CCc2ccc(S(N)(=O)=O)cc2)cc1 [Compound 6] | 4.65 ± 1.38 | 0.463 | 0.463 ± 0.007 | –
16 | Cc1ccc(NC(=O)c2cccc(Br)c2)c(C(=O)O)c1 [Compound 23, 2-(3-Bromobenzamido)-5-methylbenzoic acid] | 11.5 ± 0.37 | – | 0.21 ± 0.003 | melting point: 155 to 157 °C; IC50 (CDK9/cyclin T; [2]): 0.209 µM
17 | NS(=O)(=O)c1ccc(CCn2c(SCC(=O)Nc3ccc(F)cc3)nc3ccccc3c2=O)cc1 [Compound 11] | 3.86 ± 0.78 | 0.336 | 0.336 ± 0.005 | –
18 | CC(Sc1nc2ccccc2c(=O)n1CCc1ccc(S(N)(=O)=O)cc1)C(=O)Nc1ccc(Cl)cc1 (centres unmarked) [Compound 16] | 0.73 ± 0.01 | – | 0.35 ± 0.006 | IC50 (CDK9/cyclin T; [2]): 0.347 µM
19 | NS(=O)(=O)c1ccc(CCn2c(SCC(=O)NCc3ccc(F)cc3)nc3ccccc3c2=O)cc1 [Compound 12] | 0.69 ± 0.23 | 0.218 | 0.218 ± 0.004 | –
20 | COc1cc(NC(=O)CSc2nc3ccccc3c(=O)n2CCc2ccc(S(N)(=O)=O)cc2)cc(OC)c1OC [Compound 8] | 2.48 ± 0.32 | 0.501 | 0.501 ± 0.009 | –
21 | O=c1[nH]c(-c2cccs2)nc2ccc(I)cc12 [Compound 18] | 21.4 ± 0.68 | 0.296 | 0.296 ± 0.003 | –
22 | NC(=O)CSc1nc2ccccc2c(=O)n1CCc1ccc(S(N)(=O)=O)cc1 [Compound 2] | 2.31 ± 0.39 | 0.454 | 0.454 ± 0.006 | –
23 | Cc1ccc2nc(-c3cccc(Br)c3)[nH]c(=O)c2c1 [Compound 25, 2-(3-Bromophenyl)-6-methylquinazolin-4(3H)-one] | 16.8 ± 0.54 | 0.142 | 0.142 ± 0.001 | –
24 | O=c1[nH]cnc2ccc(I)cc12 [Compound 17] | 3.88 ± 0.12 | 0.639 | 0.639 ± 0.004 | –
25 | NS(=O)(=O)c1ccc(CCn2c(SCC(=O)Nc3ccc(Br)cc3)nc3ccccc3c2=O)cc1 [Compound 9] | 1.72 ± 0.26 | 0.131 | 0.131 ± 0.002 | –
26 | COc1ccc(CNC(=O)CSc2nc3ccccc3c(=O)n2CCc2ccc(S(N)(=O)=O)cc2)cc1 [Compound 13] | 0.84 ± 0.15 | 0.334 | 0.334 ± 0.006 | –
27 | O=c1[nH]c(-c2ccc(Cl)cc2)nc2ccc([N+](=O)[O-])cc12 [Compound 20] | 6.07 ± 0.19 | 0.434 | 0.434 ± 0.003 | reduction in potency against CDK9 (CDK9/cyclin T; compound 20 versus compound 19): 1 fold
28 | CC(=O)c1ccc(NC(=O)CSc2nc3ccccc3c(=O)n2CCc2ccc(S(N)(=O)=O)cc2)cc1 [Compound 5] | 0.18 ± 0.09 | 0.829 | 0.829 ± 0.014 | –
